# Measured values from patent publication US20220177538A1, “CO-AGONISTS AT GLP-1 AND GIP RECEPTORS SUITABLE FOR ORAL DELIVERY” (Novo Nordisk A/S, priority 2020, published 2022).
# Like-named read-outs stand apart in the source and are kept apart here. Starred links: 1 amine or outer side, 2 acyl side, 3 side chain; linkers in the order of their positions; H or OH if unused. Non-standard residues stand in square brackets, D forms with d. Residues, ends and D or L forms follow the SMILES beside them. Groups on a side chain read outwards from the residue. *: point of attachment. C18 diacid = O=C(O)CCCCCCCCCCCCCCCCC(=O)*; γGlu = O=C(O)[C@H](CCC(=O)[*:2])N[*:1]; εLys = N[C@@H](CCCCN[*:1])C(=O)[*:2]; Aib = CC(C)(N)C(=O)O
# What was measured:
# human GIP receptor = target: T1, human GIP receptor (Homo sapiens, UniProt P48546); experiment: In vitro functional potency, CRE luciferase reporter, whole BHK cells (hGIPR); assay type: cell-based; settings: BHK CRE luc2P hGIPR cells
# T1 construct: expressed in transfected cells; host or cells: BHK (parent line BHKTS13), clone BHK CRE luc2P hGIPR
# T1 sequence (P48546 22-466): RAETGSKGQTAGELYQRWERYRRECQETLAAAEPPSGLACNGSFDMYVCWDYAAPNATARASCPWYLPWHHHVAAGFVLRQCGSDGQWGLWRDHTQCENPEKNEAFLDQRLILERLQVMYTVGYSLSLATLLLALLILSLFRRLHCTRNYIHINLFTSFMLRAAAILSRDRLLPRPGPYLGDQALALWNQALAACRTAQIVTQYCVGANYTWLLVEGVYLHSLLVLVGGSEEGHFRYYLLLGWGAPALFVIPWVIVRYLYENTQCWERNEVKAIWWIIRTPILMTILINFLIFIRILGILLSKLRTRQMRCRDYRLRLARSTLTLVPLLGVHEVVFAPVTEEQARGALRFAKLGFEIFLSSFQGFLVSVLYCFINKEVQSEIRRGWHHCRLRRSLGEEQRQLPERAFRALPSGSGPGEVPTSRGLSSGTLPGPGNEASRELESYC
# Method in brief: (§1)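 BHK CRE luc2P cells stably expressing hGIPR or hGLP-1R were seeded at 5000 cells/well overnight. They were treated 3 h at 37° C with a 12-point, 3.5-fold compound series in buffer with or without HSA, and luciferase luminescence was read. Values come from log(agonist)-response regression, averaging at least two replicates.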
# [1] = Pharmacokinetic study in dogs after oral dosing of tablets with SNAC; assay type: in vivo, Beagle dogs
# Method in brief: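 Male beagle dogs (9-17 kg), fasted, received a single oral tablet with 100-300 mg SNAC and 3-4 mg test substance, groups of 6-8.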
# human GLP-1 receptor = human GLP-1 receptor (Homo sapiens, UniProt P43220); experiment: In vitro functional potency, CRE luciferase reporter, whole BHK cells (hGLP-1R); assay type: cell-based; set-up: expressed in transfected cells; host or cells: BHK (parent line BHKTS13), clone BHK CRE luc2P hGLP-1R; settings: BHK CRE luc2P hGLP-1R cells
# Sequence of human GLP-1 receptor (P43220 24-463): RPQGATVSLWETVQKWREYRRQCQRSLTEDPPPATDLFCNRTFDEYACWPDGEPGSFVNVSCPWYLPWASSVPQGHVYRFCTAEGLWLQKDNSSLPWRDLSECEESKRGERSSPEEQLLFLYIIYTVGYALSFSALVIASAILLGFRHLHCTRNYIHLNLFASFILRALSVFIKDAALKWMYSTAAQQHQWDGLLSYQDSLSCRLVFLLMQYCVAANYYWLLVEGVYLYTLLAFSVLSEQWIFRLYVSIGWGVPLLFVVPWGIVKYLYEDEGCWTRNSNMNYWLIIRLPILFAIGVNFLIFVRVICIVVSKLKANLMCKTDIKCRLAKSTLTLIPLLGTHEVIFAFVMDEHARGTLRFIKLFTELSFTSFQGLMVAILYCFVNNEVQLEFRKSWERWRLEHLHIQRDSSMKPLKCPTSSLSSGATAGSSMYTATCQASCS
# Method in brief: as §1
smiles,measurement,setting,value
CC[C@H](C)[C@H](NC(=O)[C@H](Cc1ccccc1)NC(=O)[C@H](CCC(=O)O)NC(=O)[C@H](CCCNC(=N)N)NC(=O)[C@H](C)NC(=O)[C@H](C)NC(=O)[C@H](CCC(N)=O)NC(=O)[C@H](CCC(=O)O)NC(=O)[C@H](CCC(=O)O)NC(=O)[C@H](CC(C)C)NC(=O)[C@H](CC(C)C)NC(=O)[C@@H](NC(=O)[C@H](CO)NC(=O)[C@H](Cc1ccc(O)cc1)NC(=O)[C@H](CC(=O)O)NC(=O)[C@H](CO)NC(=O)[C@@H](NC(=O)[C@H](Cc1ccccc1)NC(=O)[C@@H](NC(=O)CNC(=O)[C@H](CCC(=O)O)NC(=O)C(C)(C)NC(=O)[C@@H](N)Cc1ccc(O)cc1)[C@@H](C)O)[C@@H](C)O)[C@@H](C)CC)C(=O)N[C@@H](CCC(=O)O)C(=O)N[C@@H](Cc1c[nH]c2ccccc12)C(=O)N[C@@H](CC(C)C)C(=O)N[C@@H](CC(C)C)C(=O)N[C@@H](C)C(=O)NCC(=O)NCC(=O)N1CCC[C@H]1C(=O)N[C@@H](CO)C(=O)N[C@@H](CCCCNC(=O)[C@@H](N)CCCCNC(=O)[C@@H](N)CCCCNC(=O)CC[C@H](NC(=O)CCCCCCCCCCCCCCCCC(=O)O)C(=O)O)C(=O)NCC(=O)N[C@@H](C)C(=O)N1CCC[C@H]1C(=O)N1CCC[C@H]1C(=O)N1CCC[C@H]1C(=O)N[C@@H](CO)C(=O)O [Compound 43] (H-Y[Aib]EGTFTSDYSILLEEQAAREFIEWLLAGGPSK([εLys-εLys-γGlu-C18 diacid])GAPPPS-OH),EC50,"human GIP receptor; 0% HSA, read-out: hGIPR, CRE Luc 0% HSA EC50",0.0056 nM
same,EC50,"human GIP receptor; hGIPR, CRE Luc 1% HSA EC50, 1% HSA",0.445 nM
same,Tmax,"[1]; male, Beagle, dog, in vivo, po",1.5 h
same,half-life,"[1]; male, Beagle, dog, in vivo, po",5.46 days
same,AUC/Dose,"[1]; oral tablet, SNAC 300 mg, test substance 3 mg, Beagle dogs, arithmetic mean",21.4 kg·h/L
same,EC50,"human GLP-1 receptor; 0% HSA, read-out: hGLP-1R, CRE Luc 0% HSA EC50",0.004 nM
same,EC50,"human GLP-1 receptor; hGLP-1R, CRE Luc 1% HSA EC50, 1% HSA",0.359 nM
